Laboratory results published in patent US20170354148A1, “SAFENED HERBICIDAL COMPOSITIONS CONTAINING HALAUXIFEN AND METHODS OF USE THEREOF IN BRASSICA SPECIES” (Dow AgroSciences LLC, priority 2016, published 2017).
Like-named read-outs stand apart in the source and are kept apart here.

What was measured:
[1] = system: Roundup Ready® canola (Brassica napus, RR-BRSNN); assay: Example 5 greenhouse trials, postemergence visual injury; details: for % Visual Injury Obs / Visual Injury Obs: RR-BRSNN
[2] = system: winter oilseed rape (Brassica napus, BRSNW); assay: as above; details: for % Visual Injury Obs / Visual Injury Obs: BRSNW
[3] = system: turnip or Polish canola (Brassica rapa, BRSRR); assay: as above; details: for % Visual Injury Obs / Visual Injury Obs: BRSRR
[4] = system: Nexera™ canola (Brassica napus, BRSNN-NEX); assay: as above; details: for % Visual Injury Obs / Visual Injury Obs: BRSNN-NEX
[5] = system: rutabaga (Brassica napus var. napobrassica, BRSNA); assay: as above; details: for % Visual Injury Obs / Visual Injury Obs: BRSNA
[6] = system: kale/Chinese kale (Brassica alboglabra, BRSAG); assay: as above; details: for % Visual Injury Obs / Visual Injury Obs: BRSAG
[7] = system: Aparima Gold swede (Brassica sp., BRSSS); assay: Example 1 pot trials, postemergence crop safety, visual phytotoxicity
[8] = system: Aparima Gold swede (Brassica sp., BRSSS); assay: Example 2 field trials (Canterbury, New Zealand), postemergence crop safety, visual phytotoxicity
[9] = system: kale/Chinese kale (Brassica alboglabra, BRSAG); details: in vivo
[10] = system: turnip or Polish canola (Brassica rapa, BRSRR); details: in vivo
[11] = system: Nexera™ canola (Brassica napus, BRSNN-NEX); details: in vivo
[12] = system: Roundup Ready® canola (Brassica napus, RR-BRSNN); details: in vivo
[13] = system: winter oilseed rape (Brassica napus, BRSNW); details: in vivo
[14] = system: rutabaga (Brassica napus var. napobrassica, BRSNA); details: in vivo
[15] = system: Spring Argentine canola (Brassica napus, BRSNS); assay: Example 3 field trials (Canada), postemergence crop safety, visual phytotoxicity; details: alone or mixed

## CCOC(=O)C1=NN(c2ccc(Cl)cc2Cl)C(C)(C(=O)OCC)C1 (racemic) [Mefenpyr-diethyl, diethyl (RS)-1-(2,4-dichlorophenyl)-5-methyl-2-pyrazoline-3,5-dicarboxylate]
[1]; safener alone 5 g ai/ha
  Percent (%) Visual Injury RR-BRSNN Obs: 0%
[1]; safener alone 10 g ai/ha
  Percent (%) Visual Injury RR-BRSNN Obs: 0%
[1]; safener alone 20 g ai/ha
  Percent (%) Visual Injury RR-BRSNN Obs: 0%
[1]; safener alone 40 g ai/ha
  Percent (%) Visual Injury RR-BRSNN Obs: 0%
[2]; safener alone 5 g ai/ha
  Percent (%) Visual Injury BRSNW Obs: 0%
[2]; safener alone 10 g ai/ha
  Percent (%) Visual Injury BRSNW Obs: 0%
[2]; safener alone 20 g ai/ha
  Percent (%) Visual Injury BRSNW Obs: 0%
[2]; safener alone 40 g ai/ha
  Percent (%) Visual Injury BRSNW Obs: 0%
[3]; safener alone 5 g ai/ha
  Percent (%) Visual Injury BRSRR Obs: 0%
[3]; safener alone 10 g ai/ha
  Percent (%) Visual Injury BRSRR Obs: 0%
[3]; safener alone 20 g ai/ha
  Percent (%) Visual Injury BRSRR Obs: 0%
[3]; safener alone 40 g ai/ha
  Percent (%) Visual Injury BRSRR Obs: 0%
[4]; safener alone 5 g ai/ha
  Percent (%) Visual Injury BRSNN-NEX Obs: 0%
[4]; safener alone 10 g ai/ha
  Percent (%) Visual Injury BRSNN-NEX Obs: 0%
[4]; safener alone 20 g ai/ha
  Percent (%) Visual Injury BRSNN-NEX Obs: 0%
[4]; safener alone 40 g ai/ha
  Percent (%) Visual Injury BRSNN-NEX Obs: 0%
[5]; safener alone 5 g ai/ha
  Percent (%) Visual Injury BRSNA Obs: 0%
[5]; safener alone 10 g ai/ha
  Percent (%) Visual Injury BRSNA Obs: 0%
[5]; safener alone 20 g ai/ha
  Percent (%) Visual Injury BRSNA Obs: 0%
[5]; safener alone 40 g ai/ha
  Percent (%) Visual Injury BRSNA Obs: 0%
[6]; safener alone 5 g ai/ha
  Percent (%) Visual Injury BRSAG Obs: 0%
[6]; safener alone 10 g ai/ha
  Percent (%) Visual Injury BRSAG Obs: 0%
[6]; safener alone 20 g ai/ha
  Percent (%) Visual Injury BRSAG Obs: 0%
[6]; safener alone 40 g ai/ha
  Percent (%) Visual Injury BRSAG Obs: 0%

## O=C(O)c1nc(Cl)ccc1Cl [Clopyralid-TIPA, (2RS,2′RS,2″RS)-tris(2-hydroxypropyl)ammonium 3,6-dichloropyridine-2-carboxylate]
[7]; 3DAA1, 90 g ae/ha
  Mean % Visual Injury: 2.2%
[7]; 7DAA1, 90 g ae/ha
  Mean % Visual Injury: 0.4%
[7]; 15DAA1, 90 g ae/ha
  Mean % Visual Injury: 0.0%
[7]; 28DAA1, 90 g ae/ha
  Mean % Visual Injury: 0.0%
[8]; 22DAA1, 45 g ae/ha
  Mean % Visual Growth Inhibition: 2.0%
[8]; 22DAA1, 90 g ae/ha
  Mean % Visual Growth Inhibition: 8.0%
  Mean % Visual Injury: 0.5%
[8]; 22DAA1, 180 g ae/ha
  Mean % Visual Growth Inhibition: 7.0%
  Mean % Visual Injury: 0.5%
[8]; 28DAA1, 45 g ae/ha
  Mean % Visual Growth Inhibition: 2.5%
  Mean % Visual Injury: 2.8%
[8]; 28DAA1, 90 g ae/ha
  Mean % Visual Growth Inhibition: 5.0%
  Mean % Visual Injury: 4.5%
[8]; 28DAA1, 180 g ae/ha
  Mean % Visual Injury: 3.0%
[8]; 56DAA1, 45 g ae/ha
  Mean % Visual Growth Inhibition: 6.0%
[8]; 56DAA1, 90 g ae/ha
  Mean % Visual Growth Inhibition: 2.0%
[8]; 56DAA1, 180 g ae/ha
  Mean % Visual Growth Inhibition: 4.0%

## NCCO.O=C(O)c1nc(Cl)ccc1Cl [Clopyralidolamine]
[9]
  % Visual Injury Obs: 0%
[10]
  % Visual Injury Obs: 0%
[11]
  % Visual Injury Obs: 0%
[12]
  % Visual Injury Obs: 0%
[13]
  % Visual Injury Obs: 0%
[14]
  % Visual Injury Obs: 0%

## O=C(O)c1c(Cl)ccc2cc(Cl)cnc12 [Quinclorac, 3,7-dichloro-8-quinolinecarboxylic acid]
[15]; Table 14, 7DAAA, halauxifen-methyl 5, quinclorac 101 g ae/ha
  Mean % Visual Injury: 0.8%
[15]; Table 14, 15DAAA, halauxifen-methyl 5, quinclorac 101 g ae/ha
  Mean % Visual Injury: 1.0%
[15]; Table 14, 27DAAA, halauxifen-methyl 5, quinclorac 101 g ae/ha
  Mean % Visual Injury: 3.0%
[15]; Table 14, 57DAAA, halauxifen-methyl 5, quinclorac 101 g ae/ha
  Mean % Visual Injury: 1.5%
[15]; Table 15, 7DAAA, halauxifen-methyl 5, clopyralid-olamine 150, quinclorac 101 g ae/ha
  Mean % Visual Injury: 0.8%
[15]; Table 15, 15DAAA, halauxifen-methyl 5, clopyralid-olamine 150, quinclorac 101 g ae/ha
  Mean % Visual Injury: 1.0%
[15]; Table 15, 27DAAA, halauxifen-methyl 5, clopyralid-olamine 150, quinclorac 101 g ae/ha
  Mean % Visual Injury: 3.0%
[15]; Table 15, 57DAAA, halauxifen-methyl 5, clopyralid-olamine 150, quinclorac 101 g ae/ha
  Mean % Visual Injury: 1.5%
[15]; Table 21, 8DAAA, halauxifen-methyl 5, quinclorac 101 g ae/ha
  Mean % Visual Injury: 3.5%
[15]; Table 21, 14DAAA, halauxifen-methyl 5, quinclorac 101 g ae/ha
  Mean % Visual Injury: 1.0%
[15]; Table 21, 40DAAA, halauxifen-methyl 5, quinclorac 101 g ae/ha
  Mean % Visual Injury: 0.5%
[15]; Table 21, 81DAAA, halauxifen-methyl 5, quinclorac 101 g ae/ha
  Mean % Visual Injury: 0.0%
[15]; Table 22, 8DAAA, halauxifen-methyl 5, clopyralid-olamine 150, quinclorac 101 g ae/ha
  Mean % Visual Injury: 3.5%
[15]; Table 22, 14DAAA, halauxifen-methyl 5, clopyralid-olamine 150, quinclorac 101 g ae/ha
  Mean % Visual Injury: 1.0%
[15]; Table 22, 40DAAA, halauxifen-methyl 5, clopyralid-olamine 150, quinclorac 101 g ae/ha
  Mean % Visual Injury: 0.5%
[15]; Table 22, 81DAAA, halauxifen-methyl 5, clopyralid-olamine 150, quinclorac 101 g ae/ha
  Mean % Visual Injury: 0.0%
[15]; Table 27, 7DAAA, halauxifen-methyl 5, quinclorac 101 g ae/ha
  Mean % Visual Injury: 2.3%
[15]; Table 27, 17DAAA, halauxifen-methyl 5, quinclorac 101 g ae/ha
  Mean % Visual Injury: 1.8%
[15]; Table 27, 32DAAA, halauxifen-methyl 5, quinclorac 101 g ae/ha
  Mean % Visual Injury: 5.3%
[15]; Table 27, 49DAAA, halauxifen-methyl 5, quinclorac 101 g ae/ha
  Mean % Visual Injury: 0.5%
[15]; Table 28, 7DAAA, halauxifen-methyl 5, clopyralid-olamine 150, quinclorac 101 g ae/ha
  Mean % Visual Injury: 2.3%
[15]; Table 28, 17DAAA, halauxifen-methyl 5, clopyralid-olamine 150, quinclorac 101 g ae/ha
  Mean % Visual Injury: 1.8%
[15]; Table 28, 32DAAA, halauxifen-methyl 5, clopyralid-olamine 150, quinclorac 101 g ae/ha
  Mean % Visual Injury: 5.3%
[15]; Table 28, 49DAAA, halauxifen-methyl 5, clopyralid-olamine 150, quinclorac 101 g ae/ha
  Mean % Visual Injury: 0.5%
[1]; 50 g ai/ha alone, 20-22 d
  % Visual Injury Obs: 0%
[1]; 100 g ai/ha alone, 20-22 d
  % Visual Injury Obs: 0%
[1]; 200 g ai/ha alone, 20-22 d
  % Visual Injury Obs: 0%
[1]; quinclorac 50 g ai/ha
  % Visual Injury Obs: 0%
  Visual Injury Obs: 0%
[1]; quinclorac 100 g ai/ha
  % Visual Injury Obs: 0%
  Visual Injury Obs: 0%
[1]; quinclorac 200 g ai/ha
  % Visual Injury Obs: 0%
  Visual Injury Obs: 0%
[2]; 50 g ai/ha alone, 20-22 d
  % Visual Injury Obs: 0%
[2]; 100 g ai/ha alone, 20-22 d
  % Visual Injury Obs: 0%
[2]; 200 g ai/ha alone, 20-22 d
  % Visual Injury Obs: 0%
[2]; quinclorac 50 g ai/ha
  % Visual Injury Obs: 0%
  Visual Injury Obs: 0%
[2]; quinclorac 100 g ai/ha
  % Visual Injury Obs: 0%
  Visual Injury Obs: 0%
[2]; quinclorac 200 g ai/ha
  % Visual Injury Obs: 0%
  Visual Injury Obs: 0%
[3]; 50 g ai/ha alone, 20-22 d
  % Visual Injury Obs: 0%
[3]; 100 g ai/ha alone, 20-22 d
  % Visual Injury Obs: 0%
[3]; 200 g ai/ha alone, 20-22 d
  % Visual Injury Obs: 0%
[3]; quinclorac 50 g ai/ha
  % Visual Injury Obs: 0%
  Visual Injury Obs: 0%
[3]; quinclorac 100 g ai/ha
  % Visual Injury Obs: 0%
  Visual Injury Obs: 0%
[3]; quinclorac 200 g ai/ha
  % Visual Injury Obs: 0%
  Visual Injury Obs: 0%
[4]; 50 g ai/ha alone, 20-22 d
  % Visual Injury Obs: 0%
[4]; 100 g ai/ha alone, 20-22 d
  % Visual Injury Obs: 0%
[4]; 200 g ai/ha alone, 20-22 d
  % Visual Injury Obs: 0%
[4]; quinclorac 50 g ai/ha
  % Visual Injury Obs: 0%
  Visual Injury Obs: 0%
[4]; quinclorac 100 g ai/ha
  % Visual Injury Obs: 0%
  Visual Injury Obs: 0%
[4]; quinclorac 200 g ai/ha
  % Visual Injury Obs: 0%
  Visual Injury Obs: 0%
[5]; 50 g ai/ha alone, 20-22 d
  % Visual Injury Obs: 0%
[5]; 100 g ai/ha alone, 20-22 d
  % Visual Injury Obs: 0%
[5]; 200 g ai/ha alone, 20-22 d
  % Visual Injury Obs: 0%
[5]; quinclorac 50 g ai/ha
  % Visual Injury Obs: 0%
  Visual Injury Obs: 0%
[5]; quinclorac 100 g ai/ha
  % Visual Injury Obs: 0%
  Visual Injury Obs: 0%
[5]; quinclorac 200 g ai/ha
  % Visual Injury Obs: 0%
  Visual Injury Obs: 0%
[6]; 50 g ai/ha alone, 20-22 d
  % Visual Injury Obs: 0%
[6]; 100 g ai/ha alone, 20-22 d
  % Visual Injury Obs: 0%
[6]; 200 g ai/ha alone, 20-22 d
  % Visual Injury Obs: 0%
[6]; quinclorac 50 g ai/ha
  % Visual Injury Obs: 0%
  Visual Injury Obs: 0%
[6]; quinclorac 100 g ai/ha
  % Visual Injury Obs: 0%
  Visual Injury Obs: 0%
[6]; quinclorac 200 g ai/ha
  % Visual Injury Obs: 0%
  Visual Injury Obs: 0%
